From patent US11630110B2, “Methods to identify protein interaction” (AGENCY FOR SCIENCE, TECHNOLOGY AND RESEARCH, priority 2017, dated 2023)

Columns and labels:
NF-kβ signaling pathway = assay: Western blotting of NFκB signalling pathway members; format: cell-based; conditions: K562 cells, 20 μM methotrexate 48 hours, presence and absence of TNF; FIG. 16A
Procedure: Cells were washed with DPBS (without calcium and magnesium) once, then lysed in TOTEX Buffer (20 mM Hepes at pH 7.9, 0.35M NaCl, 20% Glycerol, 1% NP-40, 1 mM MgCl2, 0.1 mM EGTA) including 50 mM NaF, 0.3 mM […] and protease inhibitor cocktail. Supernatant including proteins was collected, followed by centrifugation at full speed for 20 minutes. Western blotting was performed by following standard procedures using the following antibodies: Rabbit Anti-phospho-IKKα/β (S180/181) (1:1,000; Bioworld Technology, BS5082), Rabbit Anti-phospho-IKBα (S32) (1:1,000; Cell Signalling Technology, 2859), Rabbit Anti-IKBα (1:1,000; Santa Cruz Biotechnology, sc-371), Rabbit Anti-phospho-p65 ([…]) (1:1,000; Cell Signalling Technology, 3031), Mouse Anti-HSP90 (1:1,000; BD, 610419), Goat Anti-Rabbit IgG-HRP (1:5,000; Santa Cruz Biotechnology, sc-2054) and Goat Anti-Mouse IgG-HRP (1:5,000; Santa Cruz Biotechnology, sc-2005).

K562 cells = assay: DNA content analysis by FACS of propidium iodide staining; format: cell-based; conditions: 20 μM methotrexate, 48 hours, vs DMSO, FIG. 34

SMILES: CN(Cc1cnc2nc(N)nc(N)c2n1)c1ccc(C(=O)N[C@@H](CCC(=O)O)C(=O)O)cc1 [methotrexate]
- activation of the NF-kβ signaling pathway (NF-kβ signaling pathway): suppressing activation
- phosphorylation of IKKα/β complex, IκBα and p65 (NF-kβ signaling pathway): inhibiting phosphorylation
- cell cycle state of K562 cells (K562 cells): arrested in the S phase
